Measurements reported in patent US12018084B2, “Anti-CXCR2 antibodies and uses thereof” (Cephalon LLC, priority 2018, dated 2024).
pIC50: −log10 of the molar value. Values belong to the compound of their own block, whether it stands above or below them.

Assays:
Human CXCR2 [1] = molecular target: T1, Human CXCR2 (Homo sapiens, UniProt P25025); assay: Calcium flux assay, HTS002C-CHEMISCREEN human CXCR2 calcium-optimized cell line; assay type: cell-based; details: for EC50: human agonist potency
T1 sequence (P25025 1-360): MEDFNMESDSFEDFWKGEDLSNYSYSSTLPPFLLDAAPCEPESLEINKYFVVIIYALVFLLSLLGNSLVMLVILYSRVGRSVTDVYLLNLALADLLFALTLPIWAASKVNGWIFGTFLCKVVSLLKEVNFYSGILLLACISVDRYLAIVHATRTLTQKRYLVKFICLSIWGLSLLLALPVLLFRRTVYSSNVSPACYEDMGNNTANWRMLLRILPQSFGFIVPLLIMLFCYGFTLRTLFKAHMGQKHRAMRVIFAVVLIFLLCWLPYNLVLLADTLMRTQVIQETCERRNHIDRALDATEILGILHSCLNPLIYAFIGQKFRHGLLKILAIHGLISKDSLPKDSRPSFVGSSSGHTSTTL
Method: One of the signaling pathways downstream of CXCR2 activation that has a role in cell chemotaxis is characterized by calcium mobilization (flux). The ability of BKO-4A8-101c to inhibit human CXCR2 ligand-induced calcium flux was tested in the commercially available HTS002C-CHEMISCREEN™ human CXCR2 chemokine receptor calcium-optimized cell line.
The Fluo-4 NW calcium assay kit (Life Technologies) was used according to manufacturer's protocol for in-cell measurement of calcium mobilization, which was read using a FLIPR Tetra high-throughput cellular screening system (Molecular Devices). The peak response minus the basal response from each well was used to determine inhibition dose response curves fitting a four-parameter logistic equation and IC50 values.

[2] = test system: neutrophil surface expression of CD11b; details: cited from earlier work
COPD = details: in vivo; cited from earlier work
Human CXCR2 [3] = molecular target: T1, Human CXCR2; assay: Tango CXCR2-bla U2OS cell-based β-arrestin recruitment assay; set-up: The beta-arrestin/TEV protease fusion and the beta-lactamase reporter are separate parts of the cell line; details: for EC50: human agonist potency
Excerpt: Cells were thawed, propagated, cultured and frozen according to the manufacturer's directions.
Preparation of Tango™ CXCR2-bla U2OS cells for use in cell-based assays: The manufacturer's protocol was altered to make use of 96-well plates instead of 384-well plates. Briefly, dividing cells were harvested one day prior to use. Cells were harvested and resuspended in assay medium (100% FreeStyle™ Expression Medium; Life Technologies; Cat #12338-018) at a viable cell density of 312,500 cells/mL. 128 μL of cell suspension was added per well in 96-well black-walled, clear bottom tissue culture-treated plates. Cells were incubated for 16-20 hrs at 37° C. in an atmosphere of 5% CO2 prior to use in assays.
Tango™ assay procedure: Assays were set up and run as described in the manufacturer's protocol. For antagonist assays, agonists were used at concentrations in the EC50-EC80 range. Assays were read using a FlexStation® 3 (Molecular Devices) fluorescence plate reader configured with the parameters given in Table 4. The blue/green emission ratio for each well was calculated by dividing the blue emission values by the green emission values. All inhibition curves were fitted using a four-parameter dose-response using GraphPad Prism™ (Version 7.01).
The Human CXCR2 Tango™ cell line was used to assess the ability of antibody BKO-4A8-101c to inhibit β-arrestin recruitment to agonist-activated CXCR2. All human ELR+ chemokine CXCR2 ligands were tested in antagonist dose response assays using calculated EC50 values of agonist.
The commercially available reporter cell line Tango™ CXCR2-bla U2OS (ThermoFisher Scientific) was used to assess the ability of the anti-CXCR2 antibodies to inhibit β-arrestin recruitment to agonist-activated CXCR2. Agonists were provided at their assay EC50 concentration for antagonist assays.

CCR2b receptors = molecular target: T2, CCR2b receptors (Homo sapiens, UniProt P41597); details: selectivity versus CXCR2; cited from earlier work
T2 sequence (P41597 1-360 isoform P41597-2): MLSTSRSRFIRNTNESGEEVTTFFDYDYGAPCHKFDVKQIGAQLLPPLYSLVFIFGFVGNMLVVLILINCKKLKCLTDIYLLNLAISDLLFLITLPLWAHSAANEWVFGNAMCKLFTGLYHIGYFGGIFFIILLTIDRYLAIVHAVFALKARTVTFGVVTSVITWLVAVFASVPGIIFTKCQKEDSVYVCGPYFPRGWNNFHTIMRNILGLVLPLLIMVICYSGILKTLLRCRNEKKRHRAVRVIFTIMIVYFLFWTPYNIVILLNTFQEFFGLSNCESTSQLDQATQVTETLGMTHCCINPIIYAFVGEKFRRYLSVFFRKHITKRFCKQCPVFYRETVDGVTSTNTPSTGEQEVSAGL

CD11b expression = details: cited from earlier work
CXCR1 = molecular target: T3, CXCR1 (Homo sapiens, UniProt P25024); details: selectivity versus CXCR2; cited from earlier work
T3 sequence (P25024 1-350): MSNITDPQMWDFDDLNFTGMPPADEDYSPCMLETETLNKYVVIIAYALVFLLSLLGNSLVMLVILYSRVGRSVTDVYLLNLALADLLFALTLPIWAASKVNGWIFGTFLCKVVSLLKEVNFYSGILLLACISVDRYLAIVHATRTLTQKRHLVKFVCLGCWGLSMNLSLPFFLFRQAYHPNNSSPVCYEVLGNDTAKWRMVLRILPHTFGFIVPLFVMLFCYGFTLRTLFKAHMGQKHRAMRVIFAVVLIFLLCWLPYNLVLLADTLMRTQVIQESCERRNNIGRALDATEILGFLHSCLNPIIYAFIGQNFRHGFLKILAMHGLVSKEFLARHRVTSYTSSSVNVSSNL

[4] = test system: mouse model of severe asthma; details: pre-treatment with 10 and 30 mg/kg; not significantly different from HDM-vehicle; cited from earlier work

Compound: CXCL8: human agonist chemokine, Miltenyi Biotec 130-108-979 [reference compound]
EC50 (Human CXCR2 [1]): 3.2 nM

Compound: Cc1c(F)cccc1NC(=O)Nc1ccc(Cl)c(S(=O)(=O)[C@H]2CCCNC2)c1O [Antagonist 5, Danirixin]
CD11b upregulation on neutrophils [2]: block CD11b upregulation
IC50, CXCL1-induced ex vivo neutrophil surface expression of CD11b [2]: 0.069 µg/mL
IC90, CXCL1-induced ex vivo neutrophil surface expression of CD11b ([2]; range 158-1080 ng/ml): 0.62 µg/mL
IC90 ([2]; range 356-2443 nM, read-out: IC90, CXCL1-induced ex vivo neutrophil surface expression of CD11b): 1400 nM
pIC50 ([2]; read-out: IC50, CXCL1-induced ex vivo neutrophil surface expression of CD11b): 6.81
CXCL1 Maximal Inhibition % (Human CXCR2 [1]; CXCL1 at EC50): 95%
CXCL8 Maximal Inhibition % (Human CXCR2 [1]; CXCL8 at EC50): 97%
primary end points in a Phase IIb trial for COPD (COPD): failed to meet primary end points
CXCL1 Maximal Inhibition % (Human CXCR2 [3]; CXCL1 at EC50, comparison with comparators): 99%
CXCL5 Maximal Inhibition % (Human CXCR2 [3]; CXCL5 at EC50, comparison with comparators): 99%
CXCL8 Maximal Inhibition % (Human CXCR2 [3]; CXCL8 at EC50, comparison with comparators): 99%

Compound: C[C@@H](Oc1cc(NS(=O)(=O)N2CCC2)nc(SCc2cccc(F)c2F)n1)[C@@H](O)CO [AZD5069]
fold less potent at CCR2b receptors (CCR2b receptors): > 150 fold
effect on C5a, LTB4 or fMLP induced CD11b expression (CD11b expression): no effect
fold less potent at CXCR1 (CXCR1): > 150 fold

Compound: CC[C@@H](Nc1c(Nc2cccc(C(=O)N(C)C)c2O)c(=O)c1=O)c1ccc(C)o1 [Antagonist 6, SCH 527123]
inhibition of neutrophil cell numbers in the BAL (maximum) [4]: ≤ 30%

Continued, values first:

EC50 (Human CXCR2 [1]): 37 nM
EC50 (Human CXCR2 [3]): 33.3 nM
Compound: CXCL2: human agonist chemokine, R&D Systems 276-GB [reference compound]

EC50 (Human CXCR2 [1]): 28.9 nM
EC50 (Human CXCR2 [3]): 9.4 nM
Compound: CXCL6: human agonist chemokine, R&D Systems 333-GC [reference compound]

EC50 (Human CXCR2 [1]): 12.2 nM
EC50 (Human CXCR2 [3]): 11.9 nM
Compound: CXCL3: human agonist chemokine, R&D Systems 277-GG [reference compound]

EC50 (Human CXCR2 [1]): 2.62 nM
EC50 (Human CXCR2 [3]): 2.3 nM
Compound: CXCL1: human agonist chemokine, Miltenyi Biotec 130-108-974 [reference compound]

EC50 (Human CXCR2 [1]): 39.2 nM
EC50 (Human CXCR2 [3]): 97.7 nM
Compound: CXCL5: human agonist chemokine, R&D Systems 254-XB [reference compound]
